Source: ChEMBL document CHEMBL1130510, “Synthesis and in vitro cytotoxicity of aminocoumarin platinum(II) complexes” (Bioorg Med Chem Lett, 1997)

How the values were obtained:
Caco-2 [1] = assay: Compound was tested in vitro for its cytotoxic activity against Caco-2T cells in MTT assay and activity is expressed as IC50; type: functional, cell-based, Homo sapiens
Caco-2 [2] = assay: Compound was tested in vitro for its cytotoxic activity against Caco-2T cells in MTT assay and activity is expressed as IC80; type: functional, cell-based; conditions: Homo sapiens

| Substance | IC50 (Caco-2 [1]) | IC80 (Caco-2 [2]) |
| --- | --- | --- |
| 3-Acetamido-6-Aminocoumarin Platinum (II) Complex [listing 1 of 2 here] | 80 µg/mL | – |
| 3-Acetamido-6-Aminocoumarin Platinum (II) Complex [listing 2 of 2 here] | – | 30 µg/mL |
| 6-Aminocoumarin Platinum (II) Complex | – | 100 µg/mL |
| 7-Amino-4-Methyl-Coumarin Platinum (II) Complex [listing 1 of 2 here] | 100 µg/mL | – |
| 7-Amino-4-Methyl-Coumarin Platinum (II) Complex [listing 2 of 2 here] | – | 30 µg/mL |
| 7-Amino-4-Trifluoromethyl-Coumarin Platinum (II) Complex [listing 1 of 2 here] | 10 µg/mL | – |
| 7-Amino-4-Trifluoromethyl-Coumarin Platinum (II) Complex [listing 2 of 2 here] | – | 5 µg/mL |
